Earlier results in patent US6579895B2, “Use of a celecoxib composition for fast pain relief” (Pharmacia Corporation, priority 2000, dated 2003).

Key:
plasma albumin = plasma albumin (Homo sapiens, UniProt P02768); settings: following oral administration
post-surgical pain = settings: ibuprofen 400 mg; e.g. post-surgical pain

Chain of plasma albumin (P02768 25-609): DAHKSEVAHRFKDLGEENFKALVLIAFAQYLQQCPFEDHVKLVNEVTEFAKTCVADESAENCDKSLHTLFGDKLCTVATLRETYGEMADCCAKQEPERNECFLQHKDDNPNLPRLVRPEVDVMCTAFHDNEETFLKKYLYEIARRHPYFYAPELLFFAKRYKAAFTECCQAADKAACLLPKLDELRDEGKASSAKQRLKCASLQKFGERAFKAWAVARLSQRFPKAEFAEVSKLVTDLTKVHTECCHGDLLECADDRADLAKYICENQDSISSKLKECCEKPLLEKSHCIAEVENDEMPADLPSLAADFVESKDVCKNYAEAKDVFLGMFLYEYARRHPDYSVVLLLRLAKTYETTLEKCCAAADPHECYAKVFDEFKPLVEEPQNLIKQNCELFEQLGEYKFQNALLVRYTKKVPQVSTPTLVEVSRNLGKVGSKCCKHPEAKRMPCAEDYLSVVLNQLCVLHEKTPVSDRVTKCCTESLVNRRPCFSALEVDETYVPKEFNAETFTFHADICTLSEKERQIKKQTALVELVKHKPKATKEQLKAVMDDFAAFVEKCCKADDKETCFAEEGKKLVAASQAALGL

Row | Compound | binding to plasma albumin (plasma albumin) | time after administration to an adequate level of suppression of pain (post-surgical pain)
1 | Cc1ccc(-c2cc(C(F)(F)F)nn2-c2ccc(S(N)(=O)=O)cc2)cc1 [celecoxib, 4-[5-(4-methylphenyl)-3-(trifluoromethyl)-1H-pyrazol-1-y1]benzenesulfonamide] | extensive binding | –
2 | CC(C)Cc1ccc(C(C)C(=O)O)cc1 (centres unmarked) [Ibuprofen, ibuprofen] | – | about 1 hour
